Data set [1] in a line: Efficiency of encapsulation / entrapment of drugs in DPPC:oleic acid:Arg (1:1:1) liposomes. Type of data set: physicochemical. Particulars: 10 mg/ml DPPC:oleic acid:Arg (1:1:1) liposomes.
Experimental: A number of drugs were encapsulated with 10 mg/ml DPPC:oleic acid:[MUT]:1:1) liposomes to illustrate medicament encapsulation for use as a drug delivery system.
A short description of the next data set: in vivo. The settings on record: rat, iv, 5 mg/kg. The protocol: The bioavailibility of indomethacin in a gel formulation was compared with that of a suspenison of indomethacin, both being compared with an IV dose. Rats were dosed with 5 mg/Kg of indomethacin. Oleic acid, arginine and phosphatide #5 (described above) in the a the ratio 1:1:1 was used to make the gel. […] Blood levels were measured 0-30 hours.

As for `CNCC(O)c1ccc(OC(=O)C(C)(C)C)c(OC(=O)C(C)(C)C)c1` (stereo not drawn) [Dipivalyl Epinephrine], the “% Entrapment” value in data set [1] (pH 7.1 PBS) is 80%. As to `CC(C(=O)O)c1ccc(-c2ccccc2)c(F)c1` (stereo not drawn) [Flurbiprofen], the “% Entrapment” value in data set [1] (pH 7.8 PBS) is reported as 90%. The compound `COc1ccc2c(c1)c(CC(=O)O)c(C)n2C(=O)c1ccc(Cl)cc1` [indomethacin] gave a C0 in the data set “in vivo” of 117 µg/mL.

For the origin of these results see patent publication US5230899A, “Methods and compositions for making liposomes” (SmithKline Beecham Corporation, priority 1991, dated 1993).
